In patent US7041681B2, “Compounds as opioid receptor modulators” (Janssen Pharmaceutica N.V., priority 2002, dated 2006):

What was measured:
mu opioid receptor = target: T1, mu opioid receptor (Rattus norvegicus, UniProt P33535); assay: Rat Brain mu Opioid Receptor Binding Assay; conditions: rat forebrain membranes, ~0.8 nM [3H]DAMGO, 25° C., 2.5 h; read-out: μ-opioid binding (Ki)
T1 construct: from tissue; host or cells: rat forebrain homogenate (Wistar rat)
Method: (§1) Male, Wistar rats (150–250 g, VAF, Charles River, Kingston, N.Y.) are killed by cervical dislocation, and their brains removed and placed immediately in ice cold Tris HCl buffer (50 mM, pH 7.4). The forebrains are separated from the remainder of the brain by a coronal transection, beginning dorsally at the colliculi and passing ventrally through the midbrain-pontine junction. After dissection, the forebrains are homogenized in Tris buffer in a Teflon®-glass homogenizer. The homogenize is diluted to a concentration of 1 g of forebrain tissue per 80 mL Tris and centrifuged at 39,000×g for 10 min. The pellet is resuspended in the same volume of Tris buffer containing 5 mM MgCl2 with several brief pulses from a Polytron homogenizer. This particulate preparation is used for the mu-opioid binding assays. Following incubation with the mu selective peptide ligand ˜0.8 nM [^3H]DAMGO at 25° C. for 2.5 h in a 96-well plate with total 1 ml, the plate contents are filtered through Wallac filtermat B sheets on a Tomtec 96-well harvester. The filters are rinsed three times with 2 mL of 10 mM HEPES (pH7.4), and dried in a microwave oven 1:45 min twice. To each sample area 2×40 μl of Betaplate Scint scintillation fluid (LKB) is added and analyzed on a LKB (Wallac) 1205 BetaPlate liquid scintillation counter.
(§2) The data are used to calculate either the % inhibition compared to control binding (when only a single concentration of test compound is evaluated) or a Ki value (when a range of concentrations is tested). % inhibition is calculated as: [(total dpm-test compound dpm dpm)/(total dpm-nonspecific dpm)]*100. Kd and Ki values were calculated using GraphPad PRISM data analysis program.

delta opioid receptor = target: T2, delta opioid receptor (Rattus norvegicus, UniProt P33533); assay: Rat Brain Delta Opioid Receptor Binding Assay; conditions: rat forebrain membranes, ~4 nM [3H]DPDPE, 25° C., 2.5 h; read-out: δ-opioid binding (Ki)
T2 construct: from tissue; host or cells: rat forebrain homogenate (Wistar rat)
T2 sequence (P33533 whole entry): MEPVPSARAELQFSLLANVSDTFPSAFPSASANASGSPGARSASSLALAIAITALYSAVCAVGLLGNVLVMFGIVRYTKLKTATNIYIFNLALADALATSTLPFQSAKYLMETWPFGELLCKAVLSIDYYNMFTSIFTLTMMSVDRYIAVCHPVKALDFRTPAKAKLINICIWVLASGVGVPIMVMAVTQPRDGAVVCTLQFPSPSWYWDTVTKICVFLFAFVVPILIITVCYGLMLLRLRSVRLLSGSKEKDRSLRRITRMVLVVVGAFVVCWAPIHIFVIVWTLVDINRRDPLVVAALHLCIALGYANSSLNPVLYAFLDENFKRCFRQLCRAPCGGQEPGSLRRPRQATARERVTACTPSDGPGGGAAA
Method: as §1, with “delta opioid” for “mu-opioid”, “delta” for “mu”, “˜4” for “˜0.8”, “[^3H]DPDPE” for “[^3H]DAMGO”, “total volume of” for “total”
as §2

T1 sequence (P33535 whole entry): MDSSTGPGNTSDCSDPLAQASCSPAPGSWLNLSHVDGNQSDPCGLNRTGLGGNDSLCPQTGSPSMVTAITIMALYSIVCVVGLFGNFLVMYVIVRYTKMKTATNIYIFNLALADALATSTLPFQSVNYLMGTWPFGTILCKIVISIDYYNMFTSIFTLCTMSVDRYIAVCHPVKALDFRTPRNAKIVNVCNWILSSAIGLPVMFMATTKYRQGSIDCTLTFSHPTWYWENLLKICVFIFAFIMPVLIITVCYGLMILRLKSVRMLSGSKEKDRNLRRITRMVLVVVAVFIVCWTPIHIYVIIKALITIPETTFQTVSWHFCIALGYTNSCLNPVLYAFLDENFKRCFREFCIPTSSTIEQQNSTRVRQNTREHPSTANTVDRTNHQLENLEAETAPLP

Row | SMILES | Ki (mu opioid receptor) [nM] | Ki (delta opioid receptor) [nM]
1 | CCNC(=O)c1ccc(C[C@H](N)C(=O)N2CCCC[C@H]2c2nc(-c3ccccc3)c[nH]2)cc1 [Cmpd 1] | 0.15 | 20.9
2 | CN1CCN(C(=O)c2ccc(C[C@H](N)C(=O)N3CCCC[C@H]3c3nc(-c4ccccc4)c[nH]3)cc2)CC1 [Cmpd 3] | 10000 | 10000
3 | CN(C)C(=O)c1ccc(C[C@H](N)C(=O)N2CCCC[C@H]2c2nc(-c3ccccc3)c[nH]2)cc1 [Cmpd 4] | 135 | 764
4 | N[C@@H](Cc1ccc(S(N)(=O)=O)cc1)C(=O)N1CCCC[C@H]1c1nc(-c2ccccc2)c[nH]1 [Cmpd 5] | 40.8 | 6180
5 | Cc1cc(C(N)=O)cc(C)c1CC(N)C(=O)N1CCCCC1c1nc(-c2ccccc2)c[nH]1 (stereo not shown) [Cmpd 6] | 0.13 | 13.9
6 | NC(=O)c1cccc(CC(N)C(=O)N2CCCCC2c2nc(-c3ccccc3)c[nH]2)c1 (stereo not shown) [Cmpd 7] | 88.3 | 6070
7 | N#Cc1cccc(C[C@H](N)C(=O)N2CCCC[C@H]2c2nc(-c3ccccc3)c[nH]2)c1 [Cmpd 8] | 207 | 10000
8 | N[C@@H](Cc1ccc(C(=O)O)cc1)C(=O)N1CCCC[C@H]1c1nc(-c2ccccc2)c[nH]1 [Cmpd 9] | 26.8 | 606
9 | CC(=O)c1ccc(C[C@H](N)C(=O)N2CCCC[C@H]2c2nc(-c3ccccc3)c[nH]2)cc1 [Cmpd 10] | 23.6 | 933
10 | N[C@@H](Cc1ccc(C(=O)Nc2ccccc2)cc1)C(=O)N1CCCC[C@H]1c1nc(-c2ccccc2)c[nH]1 [Cmpd 13] | 27.7 | 656
11 | NC(Cc1ccc(C(=O)NCCO)cc1)C(=O)N1CCCCC1c1nc(-c2ccccc2)c[nH]1 (stereo not shown) [Cmpd 14] | 9.3 | 5140
12 | NC(=O)c1ccc(C[C@H](N)C(=O)N2CCCC[C@H]2c2nc(-c3ccccc3)c[nH]2)cc1 [Cmpd 15] | 2.6 | 65.3
13 | Nc1cc(C[C@H](N)C(=O)N2CCCC[C@H]2c2nc(-c3ccccc3)c[nH]2)ccc1O [Cmpd 16] | 115 | 5330
14 | N[C@@H](Cc1ccc(O)c([N+](=O)[O-])c1)C(=O)N1CCCC[C@H]1c1nc(-c2ccccc2)c[nH]1 [Cmpd 17] | 320 | 5120
15 | NCc1ccc(C[C@H](N)C(=O)N2CCCC[C@H]2c2nc(-c3ccccc3)c[nH]2)cc1 [Cmpd 18] | 409 | 7520
16 | Cc1cc(O)cc(C)c1CC(N)C(=O)N1CCCCC1c1nc(-c2ccccc2)no1 (stereo not shown) [Cmpd 19] | 0.14 | 46.3
17 | N[C@@H](Cc1ccc(O)cc1)C(=O)N1CCCC[C@H]1c1nc(-c2ccccc2)no1 [Cmpd 20] | 231 | 10000
18 | CNC(=O)c1ccc(C[C@H](N)C(=O)N2CCCC[C@H]2c2nc(-c3ccccc3)c[nH]2)cc1 [Cmpd 21] | 0.22 | 33.9
19 | N[C@@H](Cc1cccc(O)c1)C(=O)N1CCCC[C@H]1c1nc(-c2ccccc2)c[nH]1 [Cmpd 22] | 16 | 433
20 | N[C@@H](Cc1cc(F)c(O)c(F)c1)C(=O)N1CCCC[C@H]1c1nc(-c2ccccc2)c[nH]1 [Cmpd 24] | 9.27 | 5660
21 | CC(N)(Cc1ccc(O)cc1)C(=O)N1CCCCC1c1nc(-c2ccccc2)c[nH]1 (stereo not shown) [Cmpd 25] | 1.69 | 107
22 | CC(N)(Cc1ccc(OCc2ccccc2)cc1)C(=O)N1CCCCC1c1nc(-c2ccccc2)c[nH]1 (stereo not shown) [Cmpd 26] | 87 | 628
23 | COc1cc(C)c(C[C@H](N)C(=O)N2CCCC[C@H]2c2nc(-c3ccccc3)c[nH]2)c(C)c1 [Cmpd 27] | 8.56 | 1000
24 | CN[C@@H](Cc1c(C)cc(O)cc1C)C(=O)N1CCCC[C@H]1c1nc(-c2ccccc2)c[nH]1 [Cmpd 28] | 0.3 | 21.5
25 | Cc1cc(O)cc(C)c1C[C@H](N)C(=O)N1CCCC[C@H]1c1nc(-c2ccccc2)c(C)[nH]1 [Cmpd 29] | 0.09 | 0.51

Row | SMILES | Ki (mu opioid receptor) [nM] | Ki (delta opioid receptor) [nM]
26 | Nc1ccc(CC(N)C(=O)N2CCCCC2c2nc(-c3ccccc3)c[nH]2)cc1 (stereo not shown) [Cmpd 30] | 57.2 | 1020
27 | N[C@@H](Cc1ccc(O)cc1)C(=O)N1CCCC[C@@H]1c1cccc(-c2ccccc2)c1 [Cmpd 31] | 565 | 10000
28 | N[C@@H](Cc1ccc(O)cc1)C(=O)N1CCCC[C@H]1c1cccc(-c2ccccc2)c1 [Cmpd 32] | 541 | 5900
29 | CN[C@@H](Cc1c(C)cc(OC)cc1C)C(=O)N1CCCC[C@H]1c1nc(-c2ccccc2)c[nH]1 [Cmpd 33] | 42.9 | 273
30 | Cc1cc(O)cc(C)c1CC(N)C(=O)N1CCCCC1c1nc(-c2ccccc2)c[nH]1 (stereo not shown) [Cmpd 34] | 0.05 | 1.86
31 | N#Cc1ccc(C[C@H](N)C(=O)N2CCCC[C@H]2c2nc(-c3ccccc3)c[nH]2)cc1 [Cmpd 35] | 869 | 476
32 | Cc1cc(O)cc(C)c1C[C@H](NC=O)C(=O)N1CCCC[C@H]1c1nc(-c2ccccc2)c[nH]1 [Cmpd 37] | 13.3 | 5230
33 | CN1CCN(C(=O)c2ccc(C[C@H](N)C(=O)N3Cc4ccccc4C[C@H]3c3nc(-c4ccccc4)c[nH]3)cc2)CC1 [Cmpd 102] | 1240 | 5350
34 | CN(C)C(=O)c1ccc(C[C@H](N)C(=O)N2Cc3ccccc3C[C@H]2c2nc(-c3ccccc3)c[nH]2)cc1 [Cmpd 103] | 900 | 578
35 | N[C@@H](Cc1ccc(S(N)(=O)=O)cc1)C(=O)N1Cc2ccccc2C[C@H]1c1nc(-c2ccccc2)c[nH]1 [Cmpd 104] | 592 | 174
36 | Cc1cc(C(N)=O)cc(C)c1C[C@H](N)C(=O)N1Cc2ccccc2C[C@H]1c1nc(-c2ccccc2)c[nH]1 [Cmpd 105] | 1.44 | 0.06
37 | NC(Cc1ccc(C(=O)O)cc1)C(=O)N1Cc2ccccc2CC1c1nc(-c2ccccc2)c[nH]1 (stereo not shown) [Cmpd 106] | 5780 | 5200
38 | N[C@@H](Cc1cc(F)c(O)c(F)c1)C(=O)N1Cc2ccccc2C[C@H]1c1nc(-c2ccccc2)c[nH]1 [Cmpd 109] | 167 | 12.6
39 | CC(=O)c1ccc(C[C@H](N)C(=O)N2Cc3ccccc3C[C@H]2c2nc(-c3ccccc3)c[nH]2)cc1 [Cmpd 110] | 413 | 30.4
40 | N[C@@H](Cc1ccc(C(=O)Nc2ccccc2)cc1)C(=O)N1Cc2ccccc2C[C@H]1c1nc(-c2ccccc2)c[nH]1 [Cmpd 111] | 293 | 103
41 | NC(Cc1ccc(C(=O)NCCO)cc1)C(=O)N1Cc2ccccc2CC1c1nc(-c2ccccc2)c[nH]1 (stereo not shown) [Cmpd 112] | 92.3 | 43.7
42 | CC(=O)Oc1cc(C)c(CC(N)C(=O)N2Cc3ccccc3CC2c2nc(-c3ccccc3)c[nH]2)c(C)c1 (stereo not shown) [Cmpd 113] | 0.5 | 0.2
43 | CS(=O)(=O)Nc1ccc(CC(N)C(=O)N2Cc3ccccc3CC2c2nc(-c3ccccc3)c[nH]2)cc1 (stereo not shown) [Cmpd 114] | 356 | 342
44 | NC(=O)c1ccc(CC(N)C(=O)N2Cc3ccccc3CC2c2nc(-c3ccccc3)c[nH]2)cc1 (stereo not shown) [Cmpd 115] | 23.2 | 1.3
45 | Cc1cc(OC(=O)C(C)(C)C)cc(C)c1C[C@H](N)C(=O)N1Cc2ccccc2C[C@H]1c1nc(-c2ccccc2)c[nH]1 [Cmpd 116] | 9.6 | 3.5
46 | CNC(=O)c1ccc(C[C@H](N)C(=O)N2Cc3ccccc3C[C@H]2c2nc(-c3ccccc3)c[nH]2)cc1 [Cmpd 117] | 23.6 | 1.61
47 | Cc1[nH]c([C@@H]2Cc3ccccc3CN2C(=O)[C@@H](N)Cc2ccc(C(N)=O)cc2)nc1-c1ccccc1 [Cmpd 118] | 23.1 | 0.73
48 | Cc1[nH]c([C@@H]2Cc3ccccc3CN2C(=O)[C@@H](N)Cc2ccc([N+](=O)[O-])cc2)nc1-c1ccccc1 [Cmpd 120] | 1350 | 674
49 | CC(N)(Cc1ccc(O)cc1)C(=O)N1Cc2ccccc2CC1c1nc(-c2ccccc2)c[nH]1 (stereo not shown) [Cmpd 121] | 38 | 1.32
50 | C[C@](N)(Cc1ccc(OCc2ccccc2)cc1)C(=O)N1Cc2ccccc2C[C@H]1c1nc(-c2ccccc2)c[nH]1 [Cmpd 122] | 2520 | 346
